Measured values as given in patent US11466044B2 (WAYNE STATE UNIVERSITY, priority 2017, dated 2022).
pIC50: −log10 of the molar value. ≈ marks a conversion by molar mass, not a printed value.

Columns and labels:
MRSA = experiment: MIC by broth microdilution, MRSA isolates; assay type: cell-based
E coli wild type = experiment: MIC by broth microdilution, wild type E coli; assay type: cell-based; conditions: for MIC AG001 E. coli WT: clinical isolate AG001, WT
P aeruginosa = experiment: MIC by broth microdilution, P aeruginosa isolates; assay type: cell-based, Pseudomonas aeruginosa
[1] = system: E coli carrying specific resistance determinants; experiment: MIC by broth microdilution, E coli carrying specific resistance determinants; assay type: cell-based
[2] = system: wild type bacterial ribosomes; experiment: in-vitro translation assay, bacterial ribosomes; assay type: biochemical; conditions: Mycobacterium smegmatis ribosomes; read-out: IC50 Bacterial
Text: (§1) The antiribosomal activity of these compounds was investigated with cell-free translation assays using both wild type bacterial ribosomes and hybrid ribosomes carrying eukaryotic decoding A sites enabling the prediction of selectivity.

[3] = system: A1555G mutant mitochondrial ribosome (human chimeric); experiment: in-vitro translation assay, human chimeric ribosomes, A1555G mutant mitochondrial decoding site; assay type: biochemical; conditions: for pIC50: human mitochondrial decoding site with A1555G point mutation, read-out: IC50 Mitoch. A1555G
Text: as §1

[4] = system: cytosolic ribosome (human chimeric); assay type: biochemical; conditions: for pIC50: ribosomes with a human cytosolic decoding site, read-out: IC50 Cytosolic
Text: as §1

[5] = system: mitochondrial ribosome (human chimeric); assay type: biochemical; conditions: for pIC50: ribosomes with a human mitochondrial decoding site, read-out: IC50 Mitoch.
Text: as §1

[6] = system: Klebsiella pneumonia AG215; experiment: MIC by broth microdilution, Klebsiella pneumonia; assay type: cell-based; conditions: strain AG215 Klebsiella pneumonia
[7] = system: Acinetobacter baumannii pittii AG225; experiment: MIC by broth microdilution, Acinetobacter baumannii; assay type: cell-based; conditions: strain AG225 Acinetobacter baumannii pittii
M. smegmatis SZ380 = experiment: MIC by broth microdilution, M. smegmatis

With NCC1OC(OC2C(CO)OC(OC3C(O)C(N)CC(N)C3OC3OC4C(O)CCOC4C(O)C3N)C2O)C(N)C(O)C1O (centres unmarked) [DC210] the “MIC AG038 MRSA” value (MRSA; clinical isolate AG038) was 4 µg/mL (≈ 6.23 µM), the “MIC pH430 WT” value (E coli wild type; E. coli strain pH430, WT) was 2-4 μg/ml and the “MIC AG001 E. coli WT” value (E coli wild type) was 4 µg/mL (≈ 6.23 µM). The “MIC AG031 P. aer. APH(3′)-II” value (P aeruginosa; clinical isolate AG031, APH(3′)-II) was 64 µg/mL (≈ 99.7 µM), the “MIC AG036 ANT(4′,4′′)” value ([1]; E. coli strain AG036, ANT(4′,4′′)) was 2 µg/mL (≈ 3.12 µM) and the “MIC AG037 APH(3′)-III” value ([1]; E. coli strain AG037, APH(3′)-III) was over 128 µg/mL. For the same compound, the “MIC pH421 APH(3)-I” value ([1]; E. coli strain pH421, APH(3)-I) was over 128 μg/ml, the “MIC pH422 APH(3′)-II” value ([1]; E. coli strain pH422, APH(3′)-II) was 32 μg/ml and the “MIC pH423 APH(3′)-VI” value ([1]; E. coli strain pH423, APH(3′)-VI) was 4 μg/ml. It also gave a pIC50 [2] of 7.40, a pIC50 [3] of 4.36 and a pIC50 [4] of 4.30. It also gave a pIC50 [5] of 3.48.

For NCC1OC(OC2C(CO)OC(OC3C(O)C(N)CC(N)C3OC3OC4C(O)COC4C(O)C3N)C2O)C(N)C(O)C1O (centres unmarked) [DC204], the “MIC AG038 MRSA” value (MRSA; clinical isolate AG038) was 8 µg/mL (≈ 12.7 µM), the “MIC AG001 E. coli WT” value (E coli wild type) was 16 µg/mL (≈ 25.5 µM) and the pIC50 [2] was 6.70. For the same compound, the pIC50 [3] was 3.93, the pIC50 [4] was 3.56 and the pIC50 [5] was 3.88.

CC(=O)O.NCC(=O)NC1C(OC2C(N)CC(N)C(O)C2OC2OC(CO)C(OC3OC(CN)C(O)C(O)C3N)C2O)OC(CN)C(O)C1O (centres unmarked) [Compound 175, 2′-N-(2-Aminoacetyl)-neomycin acetate salt] was tested, and the “MIC MRSA AG038” value (MRSA; clinical isolate AG038, Table 1 (Example 3)) was 4 µg/mL, the “MIC MRSA AG039” value (MRSA; clinical isolate AG039, Table 1 (Example 3)) was over 32 µg/mL and the “MIC MRSA AG042” value (MRSA; clinical isolate AG042, Table 1 (Example 3)) was over 32 µg/mL. For the same compound, the “MIC E coli AG006 Wild type” value (E coli wild type; AG006 Wild type, Table 2 (Example 3)) was 8 µg/mL, the “MIC E coli AG104 Wild type” value (E coli wild type; AG104 Wild type, Table 2 (Example 3)) was 16 µg/mL and the “antibacterial activity, in words” value (E coli wild type; MRSA and E coli, compared with the parent compound) was “very substantial loss of activity”. The “MIC E. coli WT” value (E coli wild type; WT, Table 5 (Example 3)) was 8 to 16 µg/mL, the “MIC E coli AG001” value (E coli wild type; clinical isolate AG001, Table 1 (Example 3)) was 16 µg/mL and the “MIC E coli AG003” value (E coli wild type; clinical isolate AG003, Table 1 (Example 3)) was 32 µg/mL. For the same compound, the “MIC E coli AG055” value (E coli wild type; clinical isolate AG055, Table 1 (Example 3)) was 16 µg/mL, the “MIC AG212 E. coli” value (E coli wild type; strain AG212 E. coli (ATCC25922)) was 16 µg/mL and the “MIC AG220 P. aerugin” value (P aeruginosa; strain AG220 Pseudomonas aeruginosa ATCC27853) was over 32 µg/mL. For the same compound, the “MIC E. coli AG106 AAC(2′)-Ia” value ([1]; AG106 AAC(2′)-Ia, Table 5 (Example 3)) was 16 to 32 µg/mL, the “MIC E coli AG106 AAC(2′)” value ([1]; AG106 AAC(2′), Table 2 (Example 3)) was 16 to 32 µg/mL and the “MIC E. coli pGB2armA armA” value ([1]; pGB2armA armA, Table 5 (Example 3)) was 16 μg/ml. The “Selectivity for Binding to the Bacterial Ribosome over the Mutant Mitochondrial Ribosome” value ([3]; Table 3 (Example 3)) was 153, the “Selectivity for Binding to the Bacterial Ribosome over the Cytosolic Ribosome” value ([4]; Table 3 (Example 3)) was 155 and the “Selectivity for Binding to the Bacterial Ribosome over the Mitochondrial Ribosome” value ([5]; Table 3 (Example 3)) was 67. The “MIC AG215 K. pneumon” value [6] was 8 µg/mL, the “MIC AG225 A. baumannii” value [7] was 8 to 16 µg/mL and the “MIC M. smegmatis SZ380 WT” value (M. smegmatis SZ380; SZ380 WT, Table 5 (Example 3)) was 0.25 µg/mL. The “MIC SZ380 M. smegmatis” value (M. smegmatis SZ380; strain SZ380 Mycobacterium smegmatis) was 0.25 µg/mL.
